Earlier results on one compound are cited in patent US6472583B1, “Plasmid-based mutation detection system in transgenic fish” (The University of Georgia Research Foundation, Inc., priority 1998, dated 2002).

Read-outs that look alike come from different tables or passages of the source.

For data set [1] the following is noted: species not stated.
In data set [2] the test system is λLIZ transgenic fish. The following applies: previous studies using λLIZ transgenic fish.

In general, LD50 refers to the dose at which mortality reaches 50%. Turning to `CCN(N=O)C(N)=O` [ENU, N-ethyl-N-nitrosourea], the LD50 in data set [1] is reported as about 350 mg/kg. For the same compound, the mutation frequency induction result is reported as “two-fold” in data set [2] (dose about 0.5 mM (60 ppm)) and “four-fold” in data set [2] (dose about 120 ppm, medaka).
